Patent US9340559B2, “Proteasome inhibitor delanzomib for use in the treatment of lupus” (Cephalon, Inc., priority 2011, dated 2016)

Assays:
MRL/lpr mice [1] = test: Survival / mortality, MRL/lpr mice (Example 1); details: for EOS survival, true EOS mouse percentage from starting population: vehicle 92
Description: Six week old lupus-prone, female, MRL/lpr (Jackson Labs, #000485) and non-lupus prone control MRL/MpJ (Jackson Labs, #000486) mice are obtained from Jackson Laboratories (Bar Harbor, Me.) at 6-weeks of age. All mice are maintained on a 24 hour light/dark cycle, with food and water available ad libitum. All experimental animal procedures are approved by and in accordance to the regulations of the Institutional Animal Care and Use Committee (IACUC) of Cephalon, Inc; approved IACUC protocol #03-040 and #03-03-041.
Due to this impaired tolerance mechanism, a percentage of all T and B cells that enter the periphery have a high likelihood of responding to self protein/tissues and thus initiate autoimmunity early in life. The MRL/lpr model mice develop several chronic inflammatory disease-like symptoms that are characteristic of early and late lupus including the generation of anti-nuclear antibodies, arthritis, dermatological manifestations, immunocomplex-mediated glomerulonephritis leading to proteinuria and eventual death. Lesser characterized phenomenon are CNS and cardiac manifestations, both of which are more common in humans. […] Mortality is higher in the females and occurs around 25 weeks of age, renal disease includes glomerulonephritis, glomerular infiltrates, sclerosis and vasculitis. Both splenomegaly and lymphomegaly associated with dermatitis can also be observed.
MRL/lpr mice are first randomized, initial bleeds collected, and body weights recorded for baseline measurements (FIG. 1). All mice are individually ear tagged and are monitored throughout the entire experiment (e.g., “Group#-Cage letter-Mouse#”, so “3B5”=Group 3 (G3), cage B, mouse #5). Mice are age-matched and treatment started at 6-8 weeks of age. Cheek bleeds and urine collection continues weekly throughout the experiment. Mice are individually tracked for several parameters including cytokine and ANA levels, proteinuria, body mass, lymphomegaly, general health, and mortality. All parameters are evaluated bi-monthly except mortality which is monitored daily. All groups consist of a minimum of at least 10-12 mice per group. Ex vivo experiments include flow cytometry analyses for plasma cells, serum complement C3 and ANA levels; urine protein and leukocytes, serum cytokine profiling, renal histo pathology, and determination of compound levels (pharmacokinetics (PK)) in the spleen, kidney and plasma. Mice are tracked on an individual basis. For all data, mice are grouped into populations and data graphed as mean±SEM. End-stage readouts are analyzed as described in the MATERIALS AND METHODS section (above) and in FIG. 1.
Vehicle alone is provided orally twice weekly (p.o.). Both proteasome inhibitors are suspended in the vehicle solution. Bi-monthly bleeds and urine are collected and frozen at […] until assayed. End analyses include kidney histology, splenocyte B-cell Elispots, flow cytometry for B and T cell populations, PD markers, serum cytokines, antibody and complement levels. In addition, urine proteinuria is determined for all animals.
In group two (G2), COMPOUND A was administered at a dose of 3 mg/kg iv twice weekly. In group three (G3), COMPOUND A was administered at a dose of 10 mg/kg p.o. twice weekly. […] In the new group five (G5), bortezomib was administered at a dose of 0.3 mg/kg iv twice weekly. Dexamethasone was administered at a dose of 1.5 mg/kg/2d (M, W, F) ip. Vehicle was 3% DMSO/10% Solutol/87% PBS. In those instances in which mice could not be injected via the iv route, agents were administered ip as noted in Table 1.

MRL/lpr mice [2] = test: Antinuclear antibody (ANA) ELISA (anti-chromatin, anti-Smith Ag, anti-dsDNA IgG), serum of MRL/lpr mice; type: in vivo, mouse
Text: For all ANA ELISA assays, values below the limit of detection set by the lowest point along the standard or set by the manufacturer are considered out of range and are not estimated, but assumed the lowest point along the standard curve for that particular assay.

NZM mice [3] = test: Splenomegaly (spleen mass), NZM mice (Example 2); type: in vivo, mouse
NZM mice [4] = test: Urinalysis: total urine protein (proteinuria), NZM mice (Example 2); type: in vivo, mouse
NZM mice [5] = type: in vivo, mouse; details: G1 3 mg/kg 1× wk ip

For `CC(C)C[C@H](NC(=O)[C@@H](NC(=O)c1cccc(-c2ccccc2)n1)[C@@H](C)O)B(O)O` [COMPOUND A, [(1R)-1-[[(2S,3R)-3-hydroxy-2-[6-phenyl-pyridine-2-carbonyl)amino]-1-oxobutyl]amino]-3-methylbutylboronic acid], the “increase in survival over that of vehicle” value (“increase in survival” below) (MRL/lpr mice [1]; 0.3 mg/kg iv twice weekly regimen (so in the source)) was 8.4%, the “increase in survival” value (MRL/lpr mice [1]; 0.3 mg/kg once weekly regimen (so in the source)) was 5% and the “increase in survival” value (MRL/lpr mice [1]; 10 mg/kg oral, twice weekly regimen) was 8.4%. The “EOS survival, true EOS mouse percentage from starting population” value (from here on “EOS survival, true EOS mouse percentage”) (MRL/lpr mice [1]; G1: 3 mg/kg iv, 1× wk) was 87%, the “EOS survival, true EOS mouse percentage” value (MRL/lpr mice [1]; G2: 3 mg/kg iv, 2× wk) was 100% and the “EOS survival, true EOS mouse percentage” value (MRL/lpr mice [1]; G3: 10 mg/kg po, 2× wk) was 100%. For the same compound, the “animal mortality (mice dead out of total)” value (MRL/lpr mice [1]; initial G1 dose 4 mg/kg iv once weekly, at day 71) was 4 out of 15, the “ANA AUC Smith Ag, percent change vs vehicle” value (MRL/lpr mice [2]; G1: 3 mg/kg iv, 1× wk) was −96% and the “ANA AUC chromatin, percent change vs vehicle” value (MRL/lpr mice [2]; G1: 3 mg/kg iv, 1× wk) was −94%. For the same compound, the “ANA AUC dsDNA, percent change vs vehicle” value (MRL/lpr mice [2]; G1: 3 mg/kg iv, 1× wk) was −91%, the “ANA AUC Smith Ag, percent change vs vehicle” value (MRL/lpr mice [2]; G2: 3 mg/kg iv, 2× wk) was −96% and the “ANA AUC chromatin, percent change vs vehicle” value (MRL/lpr mice [2]; G2: 3 mg/kg iv, 2× wk) was −94%. The “ANA AUC dsDNA, percent change vs vehicle” value (MRL/lpr mice [2]; G2: 3 mg/kg iv, 2× wk) was −95%, the “ANA AUC Smith Ag, percent change vs vehicle” value (MRL/lpr mice [2]; G3: 10 mg/kg po, 2× wk) was −94% and the “ANA AUC chromatin, percent change vs vehicle” value (MRL/lpr mice [2]; G3: 10 mg/kg po, 2× wk) was −91%. For the same compound, the “ANA AUC dsDNA, percent change vs vehicle” value (MRL/lpr mice [2]; G3: 10 mg/kg po, 2× wk) was −37%, the “anti-Smith Ag IgG ANA level decrease vs vehicle at EOS” value (from here on “anti-Smith Ag IgG ANA level decrease”) (MRL/lpr mice [2]; Group 1) was 97% and the “anti-chromatin IgG level reduction vs vehicle” value (MRL/lpr mice [2]; Group 1) was 89%. For the same compound, the “anti-dsDNA IgG ANA decrease vs vehicle” value (MRL/lpr mice [2]; Group 1 (iv)) was 80%, the “anti-Smith Ag IgG ANA level decrease” value (MRL/lpr mice [2]; Group 2) was 100% and the “anti-chromatin IgG level reduction vs vehicle” value (MRL/lpr mice [2]; Group 2) was 98%. For the same compound, the “anti-dsDNA IgG ANA decrease vs vehicle” value (MRL/lpr mice [2]; Group 2 (iv)) was 84%, the “anti-Smith Ag IgG ANA level decrease” value (MRL/lpr mice [2]; Group 3) was 86% and the “anti-chromatin IgG level reduction vs vehicle” value (MRL/lpr mice [2]; Group 3) was 79%. The “Spleen mass EOS, percent change vs vehicle” value (NZM mice [3]; G1 3 mg/kg ip, 1× wk) was −37%, the “splenomegaly decrease vs vehicle at EOS” value (NZM mice [3]; G1: 3 mg/kg ip once per week) was 37% and the “Spleen mass EOS, percent change vs vehicle” value (NZM mice [3]; G2 3 mg/kg ip, 2× wk) was −34%. For the same compound, the “splenomegaly decrease vs vehicle at EOS” value (NZM mice [3]; G2: 3 mg/kg ip twice weekly) was 34%, the “spleen mass compared to once-a-week bortezomib” value (NZM mice [3]; p<0.05) was “reduced spleen mass significantly” and the “Urine proteinuria AUC, percent change vs vehicle” value (NZM mice [4]; G1 3 mg/kg ip, 1× wk) was −61%. The “Urine proteinuria AUC, percent change vs vehicle” value (NZM mice [4]; G2 3 mg/kg ip, 2× wk) was −72%, the “proteinuria reduction compared to vehicle” value (NZM mice [4]; Group 1: 3 mg/kg ip once per week) was 61% and the “proteinuria reduction compared to vehicle” value (NZM mice [4]; Group 2: 3 mg/kg ip twice weekly) was 72%. The “p, serum IL-12p40/p70 concentration vs G5 Bortezomib 0.3 mg/kg 1× wk ip” value (NZM mice [5]) was “NS (NS = not significant (p > 0.05))”, the “p, serum IL-12p40/p70 concentration vs G6 Bortezomib 0.3 mg/kg 2× wk ip” value (NZM mice [5]) was “NS (NS = not significant (p > 0.05))” and the “p, serum IL-12p40/p70 concentration vs G7 CTX 50 mg/kg 1× wk ip” value (NZM mice [5]) was “NS (NS = not significant (p > 0.05))”. The “p, serum IL-12p40/p70 concentration vs G8 Dex 1.5 mg/kg 3× wk ip” value (NZM mice [5]) was “NS (NS = not significant (p > 0.05))”, the “p, serum IL-12p40/p70 concentration vs G9 Vehicle 1× wk ip” value (NZM mice [5]) was “p < 0.001” and the “p, serum IL-13 concentration vs G5 Bortezomib 0.3 mg/kg 1× wk ip” value (NZM mice [5]) was “NS (NS = not significant (p > 0.05))”. For the same compound, the “p, serum IL-13 concentration vs G6 Bortezomib 0.3 mg/kg 2× wk ip” value (NZM mice [5]) was “NS (NS = not significant (p > 0.05))”, the “p, serum IL-13 concentration vs G7 CTX 50 mg/kg 1× wk ip” value (NZM mice [5]) was “p < 0.001” and the “p, serum IL-13 concentration vs G8 Dex 1.5 mg/kg 3× wk ip” value (NZM mice [5]) was “NS (NS = not significant (p > 0.05))”. For the same compound, the “p, serum IL-13 concentration vs G9 Vehicle 1× wk ip” value (NZM mice [5]) was “NS (NS = not significant (p > 0.05))”, the “p, serum IL-17A concentration vs G5 Bortezomib 0.3 mg/kg 1× wk ip” value (NZM mice [5]) was “NS (NS = not significant (p > 0.05))” and the “p, serum IL-17A concentration vs G6 Bortezomib 0.3 mg/kg 2× wk ip” value (NZM mice [5]) was “p < 0.01”. For the same compound, the “p, serum IL-17A concentration vs G7 CTX 50 mg/kg 1× wk ip” value (NZM mice [5]) was “p < 0.001”, the “p, serum IL-17A concentration vs G8 Dex 1.5 mg/kg 3× wk ip” value (NZM mice [5]) was “NS (NS = not significant (p > 0.05))” and the “p, serum IL-17A concentration vs G9 Vehicle 1× wk ip” value (NZM mice [5]) was “NS (NS = not significant (p > 0.05))”. For the same compound, the “p, serum IP-10 concentration vs G5 Bortezomib 0.3 mg/kg 1× wk ip” value (NZM mice [5]) was “NS (NS = not significant (p > 0.05))”, the “p, serum IP-10 concentration vs G6 Bortezomib 0.3 mg/kg 2× wk ip” value (NZM mice [5]) was “NS (NS = not significant (p > 0.05))” and the “p, serum IP-10 concentration vs G7 CTX 50 mg/kg 1× wk ip” value (NZM mice [5]) was “p < 0.001”. For the same compound, the “p, serum IP-10 concentration vs G8 Dex 1.5 mg/kg 3× wk ip” value (NZM mice [5]) was “NS (NS = not significant (p > 0.05))”, the “p, serum IP-10 concentration vs G9 Vehicle 1× wk ip” value (NZM mice [5]) was “NS (NS = not significant (p > 0.05))” and the “p, serum MIG concentration vs G5 Bortezomib 0.3 mg/kg 1× wk ip” value (NZM mice [5]) was “NS (NS = not significant (p > 0.05))”. The “p, serum MIG concentration vs G6 Bortezomib 0.3 mg/kg 2× wk ip” value (NZM mice [5]) was “NS (NS = not significant (p > 0.05))” and the “p, serum MIG concentration vs G7 CTX 50 mg/kg 1× wk ip” value (NZM mice [5]) was “p < 0.001”.
